This is an account of results in patent US10358451B2, “Heterocycles useful as IDO and TDO inhibitors” (Hangzhou Innogate Pharma Co., Ltd., priority 2015, dated 2019).

For experiment [1], the target named is human IDO enzyme (IDO1) (Homo sapiens (Human), UniProt P14902). As to the kind of experiment: IDO1 enzyme assay. It counts as biochemical. The following applies: for inhibition at 0.5 µM: read-out: IDO1 (inhibition % at 500 nM). The method, then: The compounds were initially prepared in DMSO at 10 mM, then diluted in MES buffer to desired concentration. […] The mixture was centrifuged for 1 minute, then pre-incubated at room temperature for 30 minutes. […] The resulting reaction mixture was incubated at 25° C. for 40 minutes. The reaction was terminated by adding 50 ul of 30% (w/v) trichloroacetic acid. The sample was further incubated for 30 min at 60° C. and centrifuged at 2000 rpm for 5 min to remove precipitated protein. The supernatant was used to mix with an equal volume of Ehrlich's reagent (2% w/v p-dimethylaminobenzaldehyde in glacial acetic acid), then mixture was incubated at room temperature for 10 minutes. OD value was read at 490 nm in a spectrophotometer.
wherein High control=no compound; Low control=no enzyme and no compound.
IC50 values were calculated by fitting the doseresponse curves with Xlfit excel add-in version 4.3.1.

In experiment [2] the target is human TDO enzyme (Homo sapiens (Human), UniProt P48775). The experiment is described as follows: TDO enzyme assay. It is filed as biochemical. The following applies: for inhibition at 1 µM: read-out: TDO (inhibition % at 1000 nM). As for the experimental part: In vitro TDO enzymatic activity was determined in a mixture of 50 mM potassium phosphate buffer, pH 6.5; 200 nM human TDO enzyme, 300 μM L-Tryptophan, 0.2 mg/mL Catalase, 20 mM ascorbic Acid and 20 μM Methylene Blue. 100× compounds were prepared in DMSO from 1 mM, then diluted three fold, 8 doses in total. 2 μL compounds were added to 96 well plate, followed by addition of 100 μL 400 nM TDO and 0.4 mg/ml catalase in each well. The mixture was centrifuged for 1 minute, then pre-incubated at room temperature for 10 minutes. The reaction was started by the addition of 100 μL mixture of 600 μM L-Tryptophan, 40 μM methylene blue and 40 mM ascorbic acid in 50 mM potassium phosphate buffer, pH 6.5. […] Copy slope data from Synergy program, and convert slope values to inhibition values. Percent inhibition=(max−conversion)/(max−min)*100. “max” stands for high control; “min” stands for low control. Fit the data in GraphPad Prism5.0 to obtain IC50 values. Equation used is: Y=Bottom+(Top−Bottom)/(1+10^((Log IC50−X)*HillSlope).
Sequence of human TDO enzyme (P48775 whole entry): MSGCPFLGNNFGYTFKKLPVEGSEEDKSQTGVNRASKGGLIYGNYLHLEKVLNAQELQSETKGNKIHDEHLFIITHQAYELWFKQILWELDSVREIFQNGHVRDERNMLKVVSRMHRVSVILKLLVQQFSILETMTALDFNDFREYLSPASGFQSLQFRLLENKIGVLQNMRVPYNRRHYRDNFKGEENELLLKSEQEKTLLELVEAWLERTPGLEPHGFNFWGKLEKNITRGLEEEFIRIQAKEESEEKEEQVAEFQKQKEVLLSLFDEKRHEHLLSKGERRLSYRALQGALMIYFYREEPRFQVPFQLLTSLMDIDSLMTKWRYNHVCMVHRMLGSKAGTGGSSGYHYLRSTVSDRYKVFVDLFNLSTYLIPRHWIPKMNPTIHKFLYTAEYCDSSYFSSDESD

Sequence of human IDO enzyme (IDO1) (P14902 whole entry): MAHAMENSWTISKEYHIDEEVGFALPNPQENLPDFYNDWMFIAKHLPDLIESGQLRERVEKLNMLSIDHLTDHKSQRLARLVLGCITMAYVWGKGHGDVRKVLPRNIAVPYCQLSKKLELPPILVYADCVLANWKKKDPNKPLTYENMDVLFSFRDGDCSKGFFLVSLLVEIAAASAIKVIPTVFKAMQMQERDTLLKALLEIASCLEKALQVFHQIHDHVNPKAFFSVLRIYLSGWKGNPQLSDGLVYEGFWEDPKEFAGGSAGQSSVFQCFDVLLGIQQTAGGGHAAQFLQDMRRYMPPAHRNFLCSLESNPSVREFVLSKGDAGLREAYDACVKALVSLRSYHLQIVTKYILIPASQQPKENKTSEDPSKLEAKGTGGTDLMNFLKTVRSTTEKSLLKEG

For the molecule `OC(CC1c2ccccc2-c2cncn21)C1CCN(c2ccccc2)CC1` (stereo not shown) [Compound 1, 2-(5H-imidazo[5,1-a]isoindol-5-yl)-1-(1-phenylpiperidin-4-yl)ethanol], the inhibition (as a rule, the relative decrease from the control value, in per cent) at 0.5 µM in experiment [1] was above 50%. The same measure, in the same setting: for `O=[N+]([O-])c1ccccc1N1CCC(C(O)CC2c3ccccc3-c3cncn32)CC1` (stereo not shown) [Compound 7, 2-(5H-imidazo[5,1-a]isoindol-5-yl)-1-(1-(2-nitrophenyl)piperidin-4-yl)ethanol] the value was above 50%. Turning to `OC(CC1c2c(F)cccc2-c2cncn21)C12C[C@@H]3C[C@@H](CC(O)(C3)C1)C2` (stereo partly drawn) [Compound 15d-3, (1s,3r,5R,7S)-3-(2-(6-fluoro-5H-imidazo[5,1-a]isoindol-5-yl)-1-hydroxyethyl)adamantan-1-ol], in experiment [1], the half-maximal inhibitory concentration (IC50) (as a rule, the concentration at which inhibition is half-maximal) was below 0.1 µM.

`O=[N+]([O-])c1cc(C(F)(F)F)ccc1N1CCC(C(O)CC2c3ccccc3-c3cncn32)CC1` (stereo not shown) [Compound 9, 2-(5H-imidazo[5,1-a]isoindol-5-yl)-1-(1-(2-nitro-4-(trifluoromethyl)phenyl)piperidin-4-yl)ethanol]: the IC50 is below 0.5 µM in experiment [1] and below 0.2 µM in experiment [2].

In experiment [1], `OC(CC1c2c(F)cccc2-c2cncn21)C12C[C@@H]3C[C@@H](CC(O)(C3)C1)C2` (stereo partly drawn) [Compound 15d-1, (1s,3r,5R,7S)-3-(2-(6-fluoro-5H-imidazo[5,1-a]isoindol-5-yl)-1-hydroxyethyl)adamantan-1-ol] yielded an IC50 above 0.5 µM.

Consider `OC1[C@@H]2CC3C[C@H]1CC(C(O)CC1c4c(F)cccc4-c4cncn41)(C3)C2` (stereo partly drawn) [Compound 17, (1R,2s,3S,5s,7s)-5-(2-(6-fluoro-5H-imidazo[5,1-a]isoindol-5-yl)-1-hydroxyethyl)adamantan-2-ol], for which the figures for the IC50 in experiment [1] and in experiment [2] were below 0.1 µM and below 0.2 µM, respectively. As for `OC(CC1c2c(F)cccc2-c2cncn21)C12C[C@@H]3C[C@@H](CC(O)(C3)C1)C2` (stereo partly drawn) [Compound 15d, (1s,3r,5R,7S)-3-(2-(6-fluoro-5H-imidazo[5,1-a]isoindol-5-yl)-1-hydroxyethyl)adamantan-1-ol], the IC50 in experiment [1] was below 0.1 µM; in experiment [2], below 0.2 µM. In experiment [1], `OC(CC1c2c(F)cccc2-c2cncn21)C12C[C@@H]3C[C@@H](CC(O)(C3)C1)C2` (stereo partly drawn) [Compound 15d-2, (1s,3r,5R,7S)-3-(2-(6-fluoro-5H-imidazo[5,1-a]isoindol-5-yl)-1-hydroxyethyl)adamantan-1-ol] yielded an IC50 above 0.5 µM.

For `OC(CC1c2c(F)cccc2-c2cncn21)C12CC3CC(CC(C3)C1)C2` (stereo not shown) [Compound 15e, 1-((3r,5r,7r)-adamantan-1-yl)-2-(6-fluoro-5H-imidazo[5,1-a]isoindol-5-yl)ethanol], the IC50 is below 0.1 µM in experiment [1] and below 0.5 µM in experiment [2]. With `OC(CC1c2c(F)cccc2-c2cncn21)C12CCC(O)(CC1)CC2` (stereo not shown) [Compound 16, 4-(2-(6-fluoro-5H-imidazo[5,1-a]isoindol-5-yl)-1-hydroxyethyl)bicyclo[2.2.2]octan-1-ol], the 50% inhibitory concentration (IC50) in experiment [1] is below 0.1 µM; in experiment [2], below 0.2 µM. For the molecule `OC(CC1c2ccccc2-c2cncn21)C12C[C@@H]3C[C@@H](CC(O)(C3)C1)C2` (stereo partly drawn) [Compound 14f, (1s,3r,5R,7S)-3-(1-hydroxy-2-(5H-imidazo[5,1-a]isoindol-5-yl)ethyl)adamantan-1-ol], the values for the half-inhibitory concentration (IC50) in experiment [1] and in experiment [2] were below 0.1 µM and below 0.2 µM, respectively. As to `OC(CC1c2ccccc2-c2cncn21)C12CC3CC(CC(C3)C1)C2` (stereo not shown) [Compound 10, 1-((3r,5r,7r)-adamantan-1-yl)-2-(5H-imidazo[5,1-a]isoindol-5-yl)ethanol], in experiment [1], the IC50 was below 0.5 µM. In addition, the inhibition at 1 µM in experiment [2] is above 50%. For the molecule `FC(F)(CC1c2ccccc2-c2cncn21)C1CCCCC1` (stereo not shown) [Compound 6, 5-(2-cyclohexyl-2,2-difluoroethyl)-5H-imidazo[5,1-a]isoindole], the inhibition at 0.5 µM in experiment [1] is above 50%. In addition, the inhibition at 1 µM in experiment [2] is above 50%. `OC(CC1c2c(F)cccc2-c2cncn21)C1C2CC3CC1CC(O)(C3)C2` [Compound 18k-1, (1s,3R,5S,7s)-4-(2-(6-fluoro-5H-imidazo[5,1-a]isoindol-5-yl)-1-hydroxyethyl)adamantan-1-ol] displayed an IC50 in experiment [1] below 0.5 µM.

For `OC(CC1c2c(F)cccc2-c2cncn21)C1C2CC3CC1CC(O)(C3)C2` [Compound 18k-2, (1s,3R,5S,7s)-4-(2-(6-fluoro-5H-imidazo[5,1-a]isoindol-5-yl)-1-hydroxyethyl)adamantan-1-ol], the IC50 in experiment [1] is below 0.1 µM.

As to `OC(C1CCCCC1)C1(C2c3ccccc3-c3cncn32)CC1` (stereo not shown) [Compound 13, (1-(5H-imidazo[5,1-a]isoindol-5-yl)cyclopropyl)(cyclohexyl) methanol], the inhibition at 1 µM in experiment [2] was above 50%. In turn, `OC(CC1c2c(F)cccc2-c2cncn21)C12C[C@@H]3C[C@@H](CC(O)(C3)C1)C2` (stereo partly drawn) [Compound 15d-4, (1s,3r,5R,7S)-3-(2-(6-fluoro-5H-imidazo[5,1-a]isoindol-5-yl)-1-hydroxyethyl)adamantan-1-ol] came in with a concentration for half-maximal inhibition (IC50) in experiment [1] above 0.5 µM.

Consider `OC(CC1c2ccccc2-c2cncn21)C1CCN(C2CC2)CC1` (stereo not shown) [Compound 3, 1-(1-cyclopropylpiperidin-4-yl)-2-(5H-imidazo[5,1-a]isoindol-5-yl)ethanol], for which the inhibition at 1 µM in experiment [2] is above 50%. As to `OC(CC1c2ccccc2-c2cncn21)C1CCN(c2ccc(C(F)(F)F)cc2)CC1` (stereo not shown) [Compound 8, 2-(5H-imidazo[5,1-a]isoindol-5-yl)-1-(1-(4-(trifluoromethyl)phenyl)piperidin-4-yl)ethanol], the inhibition at 0.5 µM in experiment [1] was above 50%. The inhibition at 1 µM in experiment [2] was above 50%.
